Data published in US20130345061A1 (priority 2011, published 2013).
Where “and” joins values, the source holds several entries; their conditions need not be identical. Identical values can stand only once. Like-named read-outs stand apart in the source and are kept apart here.

System: Pseudomonas syringae pv. porri
Format: in vivo
Conditions: for % infection / Total number of positive leaves per object: repeats A and B
[1] = wetting agent 0, leek, natural washing off 15 mm, reading after 8 weeks
[2] = wetting agent (emulsion according to the invention) 0.25%, CuSO4 6 g/L
[3] = wetting agent (emulsion according to the invention) 0.50%, CuSO4 6 g/L
[4] = wetting agent (emulsion according to the invention) 1.00%, CuSO4 6 g/L

O=S(=O)([O-])[O-].[Cu+2] [CuSO4, copper sulfate]
significant difference to reference product Phyton 27 (statistical test) (copper sulfate with the wetting agent at 0.5% or 1%): equivalent to the reference product
% infection [1]: 52% and 49%
Total number of positive leaves per object [1]: 29
% infection [2]: 35% and 37%
Total number of positive leaves per object [2]: 18 and 17
% infection [3]: 31%
Total number of positive leaves per object [3]: 17 and 16
% infection [4]: 25% and 27%
Total number of positive leaves per object [4]: 13 and 15
leaves attacked / level of infection per mode (without wetting agent, value for the whole mode): more than 50%
